Source: PMC3763447 (Cell Death & Disease, 2013)
Peptide text beside a SMILES is read from it. * marks the point of attachment. Cbz = O=C(OCc1ccccc1)*

Assays:
Assay in all cases: fluorogenic substrate
Assay type in all cases: biochemical
[1] = biological target: T1, 20S proteasome β1 subunit (PGPH activity) (Homo sapiens, UniProt P28072)
T1 sequence (P28072 35-239): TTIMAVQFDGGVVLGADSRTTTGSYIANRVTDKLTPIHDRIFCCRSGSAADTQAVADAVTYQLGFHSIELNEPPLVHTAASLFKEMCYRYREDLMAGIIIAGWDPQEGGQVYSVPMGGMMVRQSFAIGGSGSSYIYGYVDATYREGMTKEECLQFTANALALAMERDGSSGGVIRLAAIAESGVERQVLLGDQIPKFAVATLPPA

[2] = biological target: T1, 20S proteasome β1 subunit (PGPH activity); remark: listed apart in the source
[3] = biological target: T2, 20S proteasome β5 subunit (chymotrypsin-like activity) (Homo sapiens, UniProt P28074)
T2 sequence (P28074 60-263): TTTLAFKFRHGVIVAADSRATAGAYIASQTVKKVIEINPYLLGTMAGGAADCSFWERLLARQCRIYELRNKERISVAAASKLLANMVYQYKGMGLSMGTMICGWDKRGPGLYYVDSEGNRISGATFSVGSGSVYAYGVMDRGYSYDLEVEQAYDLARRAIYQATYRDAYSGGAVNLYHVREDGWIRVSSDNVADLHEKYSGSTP

IC50 [2] [µM] | IC50 [3] [µM] | SMILES | fluorogenic substrate (Bz-LLE-AMC) assay with purified 20S proteasome [1]
 |  | CC(C)C[C@@H](C=O)NC(=O)[C@H](CC(C)C)NC(=O)[C@H](CC(C)C)NC(=O)OCc1ccccc1 [MG132] (Cbz-Leu-Leu-Leu-aldehyde) | MG132, a known proteasome inhibitor for a positive control, showed more potent inhibition on the proteasome ChT-L and PGPH activities
5.33 | 6.99 | COc1ccc(O)c2c1Oc1cccc(c1)CCc1ccc(O)c(c1)Oc1ccc(cc1)CC2 [Mar, marchantin M] | 
